The target of this test is T1, Recombinant human renin (Homo sapiens, UniProt P00797).
T1 construct: made in house; host or cells: Chinese Hamster Ovary cells
T1 sequence (P00797 67-406): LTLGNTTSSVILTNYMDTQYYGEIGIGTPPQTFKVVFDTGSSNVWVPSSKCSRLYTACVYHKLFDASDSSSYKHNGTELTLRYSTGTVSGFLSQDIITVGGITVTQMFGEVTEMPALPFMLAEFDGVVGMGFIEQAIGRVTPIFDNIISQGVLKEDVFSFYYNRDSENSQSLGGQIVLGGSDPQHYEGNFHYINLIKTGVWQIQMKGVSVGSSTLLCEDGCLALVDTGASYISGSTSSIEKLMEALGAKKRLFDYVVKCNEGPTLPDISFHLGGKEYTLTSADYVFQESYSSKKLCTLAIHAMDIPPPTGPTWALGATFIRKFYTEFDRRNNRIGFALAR
Briefly: Renin inhibitory activity in vitro, hu-renin FRET assay. The test is classed as biochemical. The protocol:
Recombinant human renin (expressed in Chinese Hamster Ovary cells and purified using standard methods) at 4 nM concentration is incubated with test compound at various concentrations for 1 h at RT in 0.1 M Tris-HCl buffer, pH 7.4, containing 0.05 M NaCl, 0.5 mM EDTA and 0.05% CHAPS. Synthetic peptide substrate Arg-Glu(EDANS)-Ile-His-Pro-Phe-His-Leu-Val-Ile_His_Thr-Lys(DABCYL)-Arg9 is added to a final concentration of 2 μM and increase in fluorescence is recorded at an excitation wave-length of 340 nm and at an emission wave-length of 485 nm in a microplate spectro-fluorimeter. IC50 values are calculated from percentage of inhibition of renin activity as a function of test compound concentration (Fluorescence Resonance Energy Transfer, FRET, assay). Recombinant human renin (expressed in Chinese Hamster Ovary cells and purified using standard methods) at 1 nM concentration is incubated with test compound at various concentrations for 1.5 h at 37° C. in 0.1 M Tris/HCl pH 7.4 containing 0.05 M NaCl, 0.5 mM EDTA and 0.025% (w/v) CHAPS. Synthetic peptide substrate Ac-Ile-His-Pro-Phe-His-Leu-Val-Ile-His-Asn-Lys-[DY-505-X5] is added to a final concentration of 5 μM. The enzyme reaction is stopped by adding 6 μL of 1.0% TFA. The product of the reaction is separated by HPLC and quantified by spectrophotometric measurement at […] wave-length. IC50 values are calculated from percentage of inhibition of renin activity as a function of test compound concentration.
Renin inhibitory activity was assessed in vitro by FRET assay (as above described). Results for representative compounds of formula I are: […]

The term IC50 denotes the concentration that inhibits the measured activity by half. In the case of `COCCCCc1cc(C[C@@H](C[C@H](N)[C@@H](O)C[C@H](C(=O)NC2CCOCC2)C(C)C)C(C)C)ccc1OC` [Example 36, (2S,4S,5S,7S)-5-Amino-4-hydroxy-2-isopropyl-7-[4-methoxy-3-(4-methoxy-butyl)-benzyl]-8-methyl-nonanoic acid (tetrahydro-pyran-4-yl)-amide], the IC50 turned out to be 0.3 nM.
